Patent US20240393292A1, “ALLERGY ANTIGEN AND EPITOPE THEREOF” (HOYU CO., LTD., priority 2019, published 2024)
Each block holds one substance with its values, some of them ahead of it.

System: IgE antibodies from patients
Experiment: Wheat epitope mapping (2): overlapping 10-amino-acid peptide fragments shifted by one amino acid;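 as to Rank of partial sequence as epitope binding to IgE antibody: key = sequence deemed particularly important within the common 15-residue sequence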;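 as to epitope sequence binding to IgE antibody, rank (Key/Preferably/More preferably): key of grades: preferably = shorter partial sequence still acting as epitope; more preferably = sequence improving IgE binding; key = particularly important sequence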
Assay type: binding, human
Outline: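 Cellulose-bound 10-mer peptides offset by one residue were probed with patient serum IgE and detected by chemiluminescence. Secondary-antibody-only signals were subtracted per peptide. Residual binding was expressed as % of the parent overlapping peptide, scored as none (<30%), poor (30–<50%), somewhat poor (50–<70%) or retained (≥70%).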

[1] = serum of patient P27 (WDEIA), partial sequence
[2] = serum of patient P50 (child, general immediate type allergy to wheat)
[3] = serum of patient P29 (WDEIA), partial sequence
[4] = serum of patient P34 (WDEIA), sequence without X
[5] = serum of patient P29 (WDEIA), sequence without X
[6] = serum of patient P9 (WDEIA), sequence without X
[7] = serum of patient G7 (adult, general immediate type allergy to wheat), sequence without X
[8] = serum of patient P31 (WDEIA), partial sequence
[9] = serum of patient P20 (WDEIA), sequence without X

- Epitope sequence binding to IgE antibody, rank of the sequence (Key/Preferably/More preferably/Further preferably) (serum of patient P50 (child, general immediate type allergy to wheat), sequence without X): More preferably
Substance: 2461 (LKAWSG; REGION 1..6: note = epitope) [compound 2461]

- Epitope sequence binding to IgE antibody, rank of the sequence [1]: Key
Substance: 2726 (KIGG; REGION 1..4: note = epitope) [compound 2726]

- epitope sequence binding to IgE antibody, rank (Key/Preferably/More preferably) [2]: Key
Substance: 1723 (KEAANF; REGION 1..6: note = epitope) [compound 1723]

- Epitope sequence binding to IgE antibody, rank of the sequence (serum of patient P32 (WDEIA), partial sequence): Key
Substance: 2619 (LASLSK; REGION 1..6: note = epitope) [compound 2619]

- Rank of partial sequence as epitope binding to IgE antibody (serum of patient P16 (WDEIA), sequence without X): Key
Substance: 1439 (SQQQA; REGION 1..5: note = epitope) [compound 1439]

- Epitope sequence binding to IgE antibody, rank of the sequence (serum of patient P30 (WDEIA), partial sequence): Key
Substance: 2579 (YQLVQQ; REGION 1..6: note = epitope) [compound 2579]

- Epitope sequence binding to IgE antibody, rank of the sequence [3]: Key
Substance: 2734 (YKIGG; REGION 1..5: note = epitope) [compound 2734]

- epitope sequence binding to IgE antibody, rank (Key/Preferably/More preferably) (serum of patient P29 (WDEIA)): More preferably
Substance: 1869 (YTVRTLQRT; REGION 1..9: note = epitope) [compound 1869]

- Epitope sequence binding to IgE antibody, rank of the sequence (serum of patient P15 (WDEIA), sequence without X): Key
Substance: 1391 (QPLPPQQQ; REGION 1..8: note = epitope) [compound 1391]

- Epitope sequence binding to IgE antibody, rank of the sequence [4]: Preferably
Substance: 1206 (QQFPPQQP; REGION 1..8: note = epitope) [compound 1206]

- Epitope sequence binding to IgE antibody, rank of the sequence (serum of patient P14 (WDEIA), sequence without X): Key
Substance: 1234 (PQQPP; REGION 1..5: note = epitope) [compound 1234]

- Rank of partial sequence as epitope binding to IgE antibody [5]: Key
Substance: 1632 (YNPD; REGION 1..4: note = epitope) [compound 1632]

- epitope sequence binding to IgE antibody, rank (Key/Preferably/More preferably) (serum of patient P24 (WDEIA)): Key
Substance: 1952 (QFPGQQ; REGION 1..6: note = epitope) [compound 1952]

- epitope sequence binding to IgE antibody, rank (Key/Preferably/More preferably) (serum of patient P30 (WDEIA)): Key
Substance: 1816 (LEALPKFL; REGION 1..8: note = epitope) [compound 1816]

- epitope sequence binding to IgE antibody, rank (Key/Preferably/More preferably) (serum of patient P35 (WDEIA)): Preferably
Substance: 1884 (TVRTLQRT; REGION 1..8: note = epitope) [compound 1884]

- Epitope sequence binding to IgE antibody, rank of the sequence [6]: Key
Substance: 1220 (IQQQP; REGION 1..5: note = epitope) [compound 1220]

- Epitope sequence binding to IgE antibody, rank of the sequence (serum of patient P8 (WDEIA), sequence without X): Key
Substance: 1307 (NVEN; REGION 1..4: note = epitope) [compound 1307]

- epitope sequence binding to IgE antibody, rank (Key/Preferably/More preferably) (serum of patient P15 (WDEIA)): Key
Substance: 1930 (FPGQQQ; REGION 1..6: note = epitope) [compound 1930]

- Rank of partial sequence as epitope binding to IgE antibody [7]: Key
Substance: 1565 (QQQQFLGQ; REGION 1..8: note = epitope) [compound 1565]

- Epitope sequence binding to IgE antibody, rank of the sequence (serum of patient P12 (WDEIA), sequence without X): Preferably
Substance: 1381 (PWQQQPLPPQ; REGION 1..10: note = epitope) [compound 1381]

- Rank of partial sequence as epitope binding to IgE antibody (serum of patient P18 (WDEIA), sequence without X): Key
Substance: 1443 (SQQQA; REGION 1..5: note = epitope) [compound 1443]

- Rank of partial sequence as epitope binding to IgE antibody [4]: Key
Substance: 1485 (SQQQA; REGION 1..5: note = epitope) [compound 1485]

- Epitope sequence binding to IgE antibody, rank of the sequence (Key/Preferably/More preferably) (serum of patient P52 (child, general immediate type allergy to wheat), sequence without X): Preferably
Substance: 2470 (LKAWSGK; REGION 1..7: note = epitope) [compound 2470]

- Rank of partial sequence as epitope binding to IgE antibody (serum of patient P51 (child, general immediate type allergy to wheat), sequence without X): Key
Substance: 1654 (YNPDKVPF; REGION 1..8: note = epitope) [compound 1654]

- Epitope sequence binding to IgE antibody, rank of the sequence (Key/Preferably/More preferably) (serum of patient P28 (WDEIA), sequence without X): Key
Substance: 2380 (DRCAYVTEIV; REGION 1..10: note = epitope) [compound 2380]

- epitope sequence binding to IgE antibody, rank (Key/Preferably/More preferably) (serum of patient P28 (WDEIA)): Key
Substance: 1868 (TVRTLQ; REGION 1..6: note = epitope) [compound 1868]

- Rank of partial sequence as epitope binding to IgE antibody [4]: More preferably
Substance: 1482 (YLQPQQPISQ; REGION 1..10: note = epitope) [compound 1482]

- Epitope sequence binding to IgE antibody, rank of the sequence [8]: Key
Substance: 2741 (GIGTVPVGRV; REGION 1..10: note = epitope) [compound 2741]

- Epitope sequence binding to IgE antibody, rank of the sequence (serum of patient P21 (WDEIA), sequence without X): Key
Substance: 1236 (PQQPP; REGION 1..5: note = epitope) [compound 1236]

- Epitope sequence binding to IgE antibody, rank of the sequence [5]: Key
Substance: 1277 (LPRS; REGION 1..4: note = epitope) [compound 1277]

- Epitope sequence binding to IgE antibody, rank of the sequence (Key/Preferably/More preferably) (serum of patient P26 (WDEIA), sequence without X): Key
Substance: 2371 (HDIDRCAY; REGION 1..8: note = epitope) [compound 2371]

- Epitope sequence binding to IgE antibody, rank of the sequence (serum of patient P36 (WDEIA), partial sequence): Key
Substance: 2695 (YKGPTL; REGION 1..6: note = epitope) [compound 2695]

- Epitope sequence binding to IgE antibody, rank of the sequence (serum of patient P28 (WDEIA), partial sequence): Key
Substance: 2731 (YKIGGI; REGION 1..6: note = epitope) [compound 2731]

- epitope sequence binding to IgE antibody, rank (Key/Preferably/More preferably) (serum of patient P9 (WDEIA)): Key
Substance: 1916 (QQQQFPGQQQ; REGION 1..10: note = epitope) [compound 1916]

- Epitope sequence binding to IgE antibody, rank of the sequence [1]: Preferably
Substance: 2685 (YKGPTL; REGION 1..6: note = epitope) [compound 2685]

- Epitope sequence binding to IgE antibody, rank of the sequence (Key/Preferably/More preferably) [4]: Key
Substance: 2327 (RYDAIRAII; REGION 1..9: note = epitope) [compound 2327]

- Epitope sequence binding to IgE antibody, rank of the sequence (Key/Preferably/More preferably) [7]: Key
Substance: 2418 (TEIVL; REGION 1..5: note = epitope) [compound 2418]

- Epitope sequence binding to IgE antibody, rank of the sequence [8]: Preferably
Substance: 2583 (QLVQQ; REGION 1..5: note = epitope) [compound 2583]

- Epitope sequence binding to IgE antibody, rank of the sequence (Key/Preferably/More preferably) (serum of patient P5 (WDEIA), sequence without X): Preferably
Substance: 2267 (KRVIERFEK; REGION 1..9: note = epitope) [compound 2267]

- Epitope sequence binding to IgE antibody, rank of the sequence (serum of patient G7 (adult, general immediate type allergy to wheat), partial sequence): Key
Substance: 2698 (KGPTL; REGION 1..5: note = epitope) [compound 2698]

- Epitope sequence binding to IgE antibody, rank of the sequence (serum of patient P15 (WDEIA), partial sequence): Key
Substance: 2503 (SSQVSF; REGION 1..6: note = epitope) [compound 2503]

- Epitope sequence binding to IgE antibody, rank of the sequence (Key/Preferably/More preferably) [5]: Preferably
Substance: 2233 (IRNYRVAI; REGION 1..8: note = epitope) [compound 2233]

- epitope sequence binding to IgE antibody, rank (Key/Preferably/More preferably) (serum of patient P31 (WDEIA)): Preferably
Substance: 1876 (VRTLQRT; REGION 1..7: note = epitope) [compound 1876]

- epitope sequence binding to IgE antibody, rank (Key/Preferably/More preferably) (serum of patient G9 (adult, general immediate type allergy to wheat)): Key
Substance: 1788 (LKKVGYNP; REGION 1..8: note = epitope) [compound 1788]

- epitope sequence binding to IgE antibody, rank (Key/Preferably/More preferably) [2]: Preferably
Substance: 1722 (KEAANFT; REGION 1..7: note = epitope) [compound 1722]

- Epitope sequence binding to IgE antibody, rank of the sequence (Key/Preferably/More preferably) [6]: Key
Substance: 2344 (HDIDRCAY; REGION 1..8: note = epitope) [compound 2344]

- Rank of partial sequence as epitope binding to IgE antibody [9]: Key
Substance: 1618 (FVPISG; REGION 1..6: note = epitope) [compound 1618]

- Epitope sequence binding to IgE antibody, rank of the sequence (Key/Preferably/More preferably/Further preferably) (serum of patient P2 (WDEIA), sequence without X): Preferably
Substance: 1300 (SINVENVED; REGION 1..9: note = epitope) [compound 1300]

- Epitope sequence binding to IgE antibody, rank of the sequence (Key/Preferably/More preferably) (serum of patient P31 (WDEIA), sequence without X): Key
Substance: 2239 (NYRVAI; REGION 1..6: note = epitope) [compound 2239]

- epitope sequence binding to IgE antibody, rank (Key/Preferably/More preferably) (serum of patient P16 (WDEIA)): Preferably
Substance: 1849 (TVRTLQR; REGION 1..7: note = epitope) [compound 1849]

- Epitope sequence binding to IgE antibody, rank of the sequence (Key/Preferably/More preferably) (serum of patient P33 (WDEIA), sequence without X): Key
Substance: 2290 (DKRVIERFE; REGION 1..9: note = epitope) [compound 2290]

- Epitope sequence binding to IgE antibody, rank of the sequence (serum of patient P51 (child, general immediate type allergy to wheat), partial sequence): Preferably
Substance: 2514 (SFQPSQLNPQ; REGION 1..10: note = epitope) [compound 2514]

- Epitope sequence binding to IgE antibody, rank of the sequence [3]: Preferably
Substance: 2649 (KEAAE; REGION 1..5: note = epitope) [compound 2649]

- Epitope sequence binding to IgE antibody, rank of the sequence (Key/Preferably/More preferably) (serum of patient G6 (adult, general immediate type allergy to wheat), sequence without X): Key
Substance: 2339 (AIIYS; REGION 1..5: note = epitope) [compound 2339]

- Rank of partial sequence as epitope binding to IgE antibody [9]: More preferably
Substance: 1581 (PFPQTQQPQ; REGION 1..9: note = epitope) [compound 1581]

- Epitope sequence binding to IgE antibody, rank of the sequence (serum of patient P16 (WDEIA), partial sequence): Key
Substance: 2710 (YKIGG; REGION 1..5: note = epitope) [compound 2710]

- Rank of partial sequence as epitope binding to IgE antibody [4]: More preferably
Substance: 1550 (LVQQQQFLGQ; REGION 1..10: note = epitope) [compound 1550]
